Test results published in ChEMBL document CHEMBL1201862, “PubChem BioAssay data set” (2004).
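Cells were grown in 96-well plates and exposed to each compound for 48 hours at five concentrations; endpoints were interpolated linearly between bracketing concentrations, or set to the highest concentration if not reached. GI50 = concentration required for 50% inhibition of growth.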 Active and inactive are the calls of the source. No stated cut-off is given here; in the data, active = GI50 up to about 1.1 µM and inactive = higher.

What was measured:
Test in all cases: NCI-60 cell line screen, 48 h
ACHN = tested on: ACHN
KM-20L2 = tested on: KM-20L2
UACC-62 = tested on: UACC-62
NCI-H23 = tested on: NCI-H23
OVCAR-8 = tested on: OVCAR-8
NCI-H226 = tested on: NCI-H226
SN12C = tested on: SN12C
HCT-116 = tested on: HCT-116
A498 = tested on: A498
CCRF-CEM = tested on: CCRF-CEM
SNB-19 = tested on: SNB-19
CAKI-1 = tested on: CAKI-1
COLO 205 = tested on: COLO 205
HCT-15 = tested on: HCT-15
Malme-3M = tested on: Malme-3M
OVCAR-4 = tested on: OVCAR-4
KM12 = tested on: KM12
SK-MEL-5 = tested on: SK-MEL-5
TK-10 = tested on: TK-10
SK-MEL-2 = tested on: SK-MEL-2
HOP-62 = tested on: HOP-62
SK-MEL-28 = tested on: SK-MEL-28
EKVX = tested on: EKVX
DMS-114 = tested on: DMS-114
U-251 = tested on: U-251
OVCAR-5 = tested on: OVCAR-5
LXFL 529 = tested on: LXFL 529
DMS-273 = tested on: DMS-273
SF-295 = tested on: SF-295
M19-MEL = tested on: M19-MEL
RXF 393 = tested on: RXF 393
IGROV-1 = tested on: IGROV-1
HT-29 = tested on: HT-29
SK-OV-3 = tested on: SK-OV-3
K562 = tested on: K562
A549 = tested on: A549
LOX IMVI = tested on: LOX IMVI
HCC 2998 = tested on: HCC 2998
NCI-H460 = tested on: NCI-H460
XF498 = tested on: XF498
M14 = tested on: M14
HL-60 = tested on: HL-60
786-0 = tested on: 786-0
MOLT-4 = tested on: MOLT-4
SNB-78 = tested on: SNB-78
SF-268 = tested on: SF-268
RPMI-8226 = tested on: RPMI-8226
SNB-75 = tested on: SNB-75
HOP-18 = tested on: HOP-18
SW-620 = tested on: SW-620
DLD-1 = tested on: DLD-1
SF-539 = tested on: SF-539
UACC-257 = tested on: UACC-257
UO-31 = tested on: UO-31
NCI-H522 = tested on: NCI-H522

Structure (SMILES): FC(F)(F)P1C2C=CC(CC2)C1(F)F (stereo not given)
- GI50 (ACHN): > 100 µM (inactive)
- GI50 (KM-20L2): > 100 µM (inactive)
- GI50 (UACC-62): > 100 µM (inactive)
- GI50 (NCI-H23): > 100 µM (inactive)
- GI50 (OVCAR-8): > 100 µM (inactive)
- GI50 (NCI-H226): > 100 µM (inactive)
- GI50 (SN12C): > 100 µM (inactive)
- GI50 (HCT-116): > 100 µM (inactive)
- GI50 (A498): > 100 µM (inactive)
- GI50 (CCRF-CEM): > 100 µM (inactive)
- GI50 (SNB-19): > 100 µM (inactive)
- GI50 (CAKI-1): > 100 µM (inactive)
- GI50 (COLO 205): > 100 µM (inactive)
- GI50 (HCT-15): > 100 µM
- GI50 (Malme-3M): > 100 µM (inactive)
- GI50 (OVCAR-4): > 100 µM (inactive)
- GI50 (KM12): > 100 µM (inactive)
- GI50 (SK-MEL-5): > 100 µM (inactive)
- GI50 (TK-10): > 100 µM (inactive)
- GI50 (SK-MEL-2): > 100 µM (inactive)
- GI50 (HOP-62): > 100 µM (inactive)
- GI50 (SK-MEL-28): > 100 µM (inactive)
- GI50 (EKVX): > 100 µM (inactive)
- GI50 (DMS-114): > 100 µM (inactive)
- GI50 (U-251): > 100 µM (inactive)
- GI50 (OVCAR-5): > 100 µM (inactive)
- GI50 (LXFL 529): > 100 µM (inactive)
- GI50 (DMS-273): > 100 µM (inactive)
- GI50 (SF-295): > 100 µM (inactive)
- GI50 (M19-MEL): > 100 µM (inactive)
- GI50 (RXF 393): > 100 µM (inactive)
- GI50 (IGROV-1): > 100 µM (inactive)
- GI50 (HT-29): > 100 µM (inactive)
- GI50 (SK-OV-3): > 100 µM (inactive)
- GI50 (K562): > 100 µM (inactive)
- GI50 (A549): > 100 µM (inactive)
- GI50 (LOX IMVI): > 100 µM (inactive)
- GI50 (HCC 2998): > 100 µM (inactive)
- GI50 (NCI-H460): > 100 µM (inactive)
- GI50 (XF498): > 100 µM (inactive)
- GI50 (M14): > 100 µM (inactive)
- GI50 (HL-60): > 100 µM (inactive)
- GI50 (786-0): > 100 µM (inactive)
- GI50 (MOLT-4): > 100 µM (inactive)
- GI50 (SNB-78): > 100 µM (inactive)
- GI50 (SF-268): > 100 µM (inactive)
- GI50 (RPMI-8226): > 100 µM (inactive)
- GI50 (SNB-75): > 100 µM (inactive)
- GI50 (HOP-18): > 100 µM (inactive)
- GI50 (SW-620): 63.2 µM (inactive)
- GI50 (DLD-1): > 100 µM (inactive)
- GI50 (SF-539): > 100 µM (inactive)
- GI50 (UACC-257): > 100 µM (inactive)
- GI50 (UO-31): > 100 µM (inactive)
- GI50 (NCI-H522): > 100 µM (inactive)
